# What was measured:
# [1] = Crystalline stability under accelerated storage conditions (40° C., 75±5 RH %), XRPD; format: physicochemical; conditions: for Stability, 1 week / Stability, 2 weeks / Stability, 3 weeks / Stability, 4 weeks: 40° C., 75±5 RH %, XRPD; for Stability under forced conditions (one week) and in 4-weeks stability assay: crystallinity, colour, aspect
# Procedure: Crystalline stability study was performed under accelerated stability conditions (40° C., 75±5 RH %) for one week. A sample of each form stored on a XRPD silicon holder was exposed in a climatic chamber. It is worth noting that these conditions are very drastic because the high surface exposed to the storage conditions might favour possible crystalline conversion. The samples were periodically analysed by XRPD to observe possible transformation.
# Additional crystalline stability study was performed under accelerated stability conditions (40° C., 75±5 RH %). Cocrystal samples were stored in an open vial and exposed in a climate chamber maintaining the conditions set with accuracy (40° C.-75% RH ±5 RH). These samples were analysed weekly for 1 month.
# The stability of the cocrystalline forms of (1R,3S)-3-(5-cyano-4-phenyl-1,3-thiazol ylcarbamoyl) cyclopentane carboxylic acid were studied under accelerated storage conditions (40° C., 75±5 RH %) for one to four week. See results in Table 5.
# After time exposure, cocrystals remained stable according to XRPD analysis. Amorphization or appearance of crystalline forms was not detected in the limit of detection of the analysis conditions.
# [2] = Hygroscopicity study by DVS (Dynamic Vapour Sorption); format: physicochemical; conditions: for moisture content, 15% RH / moisture content, 35% RH / moisture content, 55% RH / moisture content, 75% RH: DVS, 25° C.; for variation in the moisture content: at 75% RH
# Procedure: Hygroscopicity study. The hygroscopicity of cocrystals was determined by DVS (Dynamic Vapour Sorption) with a Q5000 TA instrument. This is a gravimetric technique that measures the amount of water absorbed or desorbed by a sample at different relative humidities (RH). At each RH level, the sample mass must be allowed to reach gravimetric equilibrium (or surpass the time limit) before progressing to the next humidity level. Sorption and desorption isotherms were performed at 25° C. over a range of 0-95% RH. The sample was not previously dried, but it was exposed to 0% RH until reaching a stable weight before starting the DVS cycle. This equilibration step allows the elimination of the possible adsorbed humidity from the atmosphere. The relative humidity (RH) was controlled by a mixture of wet and dry nitrogen stream. The RH was held constant until the equilibrium had been obtained (constant weight) or until the maximum time has been reached, before changing the RH to the next level.
# [3] = Plasma pharmacokinetics / oral bioavailability after single IV and PO administration; format: in vivo; conditions: male SD rats; for F % (bioavailability): po 5 mg/Kg vs iv 1 mg/Kg
# Procedure: The objective of this study was to investigate the plasma pharmacokinetics of differentes cocrystals obtained from (1R,3S)-3-(5-cyano-4-phenyl-1, 3-thiazol ylcarbamoyl) cyclopentane carboxylic acid, following a single intravenous (IV) and oral (PO) administration in male SD rats.
# Animals were divided into two groups: Group 1 (IV: 1 mg/kg) and Group 2 (PO: 5 mg/kg). Animals in Group 1 and 2 were administered a solution of the different cocrystals of (1R,3S)-3-(5-cyano-4-phenyl-1,3-thiazol-2-ylcarbamoyl) cyclopentane carboxylic acid in normal saline. The blood samples were collected from set of three rats at each time point in labeled micro centrifuge tube containing K2EDTA solution as anticoagulant at Pre-dose, 0.083, 0.25, 0.5, 1, 2, 4, 8 and 24 hr (IV) and Pre-dose, 0.25, 0.5, 1, 2, 4, 6, 8 and 24 hr (PO). Plasma samples were separated by centrifugation of whole blood and stored below −70±10° C. until bioanalysis. All samples were processed for analysis by protein precipitation using acetonitrile and analyzed with fit-for-purpose LC-MS/MS method (LLOQ=1.00 ng/ml). Pharmacokinetic parameters were calculated using the non-compartmental analysis tool of Phoenix WinNonlin® (Version 6.3).
# [4] = Comparative bioavailability assay in healthy volunteers; format: in vivo; conditions: for AUC0-t, MEAN ± SD / AUC0-t, geometric mean / AUC0-∞, MEAN ± SD / AUC0-∞, geometric mean / Cmax, MEAN ± SD / Cmax, geometric mean / tmax, median and range: single oral dose, Example 1 5 mg, Example 2 7.3 mg
# Procedure: Healthy volunteers in this study will be males 18 years of age or older in order to assess the comparative bioavailability of compound of Example 2 versus compound of Example 1, under fasting conditions and to investigate the effect of a high fat, high calorie meal. Compounds will be administered orally in single dose of Example 1 (5 mg) and Example 2 (7.3 mg). The study will have a randomized, open-label, four-fold crossover design.
# In order to determine comparative bioavailability AUC0-t (AUC0-t: Area under the plasma concentration-time curve from time 0 h to the last measurable concentration) and Cmax (Cmax: Observed maximum plasma concentration (peak exposure)) will be determined after each administration.
# 16 volunteers were included in the study. […] Therefore, all the data were included in all pharmacokinetic measurements and calculations, without any adjustment.
# [5] = pKa / ΔpKa of free acid and cocrystal forming compounds; format: physicochemical
# Source text: Cocrystals are distinguished from salts because unlike salts, the components that co-exist in the cocrystal lattice with a defined stoichiometry interact nonionically. […] If this criterion is met, the API-coformer entity should be classified as a cocrystal. (Regulatory Classification of Pharmaceutical Co-Crystals Guidance for Industry, February 2018, http://www.fda.gov/Drugs/GuidanceComplianceRegulatotyInformation/Guidances/default.htm).
# [6] = Fed (high fat, high calorie meal)
smiles,measurement,setting,value
"N#Cc1sc(NC(=O)[C@H]2CC[C@@H](C(=O)O)C2)nc1-c1ccccc1.O=C(O)c1cc(O)ccc1O [Example 2, cocrystal of (1R,3S)-3-(5-cyano-4-phenyl-1,3-thiazol-2-ylcarbamoyl) cyclopentane carboxylic acid and gentisic acid]","Stability, 1 week",[1],stable
same,"Stability, 2 weeks",[1],stable
same,"Stability, 3 weeks",[1],stable
same,"Stability, 4 weeks",[1],stable
same,Stability under forced conditions (one week) and in 4-weeks stability assay,[1],"no crystallinity changes, colour or any other change in the aspect were observed"
same,"moisture content, 15% RH",[2],0.0079
same,"moisture content, 35% RH",[2],0.0175
same,"moisture content, 55% RH",[2],0.0398
same,"moisture content, 75% RH",[2],0.1035
same,variation in the moisture content,[2],0.10%
same,Hygroscopicity compared with the free acid,"[2]; usual storage conditions of drugs (<75% RH), up to 75% RH, listed as cocrystal with gentisic acid",less hygroscopic than free acid
same,Hygroscopicity compared with the free acid,"[2]; usual storage conditions of drugs (<75% RH), up to 75% RH, listed as gentisic acid cocrystal",less hygroscopicity than the free acid
same,AUClast,"[3]; iv, 1 mg/Kg",3304.55 ng·h/mL
same,Clearance,"[3]; iv, 1 mg/Kg",5.03 mL/min/kg
same,F % (bioavailability),[3],100%
same,AUClast,"[3]; po, 5 mg/Kg",16502.48 ng·h/mL
same,Cmax,"[3]; po, 5 mg/Kg",8642.28 ng/mL
same,"AUC0-t, MEAN ± SD",[4]; Fasting,1138.5 ± 451.1 ng/mLxh
same,"AUC0-t, geometric mean",[4]; Fasting,(1071.4) ng/mLxh
same,"AUC0-∞, MEAN ± SD",[4]; Fasting,1216.5 ± 483.3 ng/mLxh
same,"AUC0-∞, geometric mean",[4]; Fasting,(1141.7) ng/mLxh
same,"Cmax, MEAN ± SD",[4]; Fasting,173.7 ± 60.7 ng/mL
same,"Cmax, geometric mean",[4]; Fasting,(165.8) ng/mL
same,"tmax, median and range",[4]; Fasting,2.25 (1.5-5.0) h
same,"AUC0-t, MEAN ± SD",[4]; [6],599.1 ± 132.1 ng/mLxh
same,"AUC0-t, geometric mean",[4]; [6],(585.9) ng/mLxh
same,"AUC0-∞, MEAN ± SD",[4]; [6],675.0 ± 158.8 ng/mLxh
same,"AUC0-∞, geometric mean",[4]; [6],(659.1) ng/mLxh
same,"Cmax, MEAN ± SD",[4]; [6],73.6 ± 25.1 ng/mL
same,"Cmax, geometric mean",[4]; [6],(69.8) ng/mL
same,"tmax, median and range",[4]; [6],7.0 (5.0-7.0) h
same,Cmax compared with Example 1,[4]; administered after a high fat meal,slightly higher
"N#Cc1sc(NC(=O)[C@H]2CC[C@@H](C(=O)O)C2)nc1-c1ccccc1.NC(N)=O [Example 3, cocrystal of (1R,3S)-3-(5-cyano-4-phenyl-1,3-thiazol-2-ylcarbamoyl) cyclopentane carboxylic acid and urea]","Stability, 1 week",[1],stable
same,"Stability, 2 weeks",[1],stable
same,"Stability, 3 weeks",[1],stable
same,"Stability, 4 weeks",[1],stable
same,Stability under forced conditions (one week) and in 4-weeks stability assay,[1],"no crystallinity changes, colour or any other change in the aspect were observed"
same,"moisture content, 15% RH",[2],0.015
same,"moisture content, 35% RH",[2],0.0339
same,"moisture content, 55% RH",[2],0.0545
same,"moisture content, 75% RH",[2],0.0895
same,variation in the moisture content,[2],0.08%
same,Hygroscopicity compared with the free acid,"[2]; usual storage conditions of drugs (<75% RH), up to 75% RH, listed as cocrystal with urea",less hygroscopic than free acid
same,Hygroscopicity compared with the free acid,"[2]; usual storage conditions of drugs (<75% RH), up to 75% RH, listed as urea cocrystal",less hygroscopicity than the free acid
same,AUClast,"[3]; iv, 1 mg/Kg",2714.55 ng·h/mL
same,Clearance,"[3]; iv, 1 mg/Kg",6.12 mL/min/kg
same,F % (bioavailability),[3],100%
same,AUClast,"[3]; po, 5 mg/Kg",19238.03 ng·h/mL
same,Cmax,"[3]; po, 5 mg/Kg",10227.47 ng/mL
"N#Cc1sc(NC(=O)[C@H]2CC[C@@H](C(=O)O)C2)nc1-c1ccccc1.NC(=O)c1cccnc1 [Example 4, cocrystal of (1R,3S)-3-(5-cyano-4-phenyl-1,3-thiazol-2-ylcarbamoyl) cyclopentane carboxylic acid and nicotinamide]","Stability, 1 week",[1],stable
same,"Stability, 2 weeks",[1],stable
same,"Stability, 3 weeks",[1],stable
same,"Stability, 4 weeks",[1],stable
same,Stability under forced conditions (one week) and in 4-weeks stability assay,[1],"no crystallinity changes, colour or any other change in the aspect were observed"
same,"moisture content, 15% RH",[2],0.029
same,"moisture content, 35% RH",[2],0.066
same,"moisture content, 55% RH",[2],0.165
same,"moisture content, 75% RH",[2],0.4584
same,Hygroscopicity compared with the free acid,[2]; range between 5-70% RH,less hygroscopicity than the free acid
"O=C(O)c1cc(O)ccc1O [Gentisic acid, 2,5-dihydroxybenzoic acid]",pKa conjugated base,[5]; cocrystal forming compound,Not basic
"NC(=O)c1cccnc1 [Nicotinamide, 3-pyridinecarboxamide]",ΔpKa,[5]; between the free acid (pKa 4.3) and the cocrystal forming compound,0.9
same,pKa,"[5]; cocrystal forming compound, read-out: pKa conjugated base",3.4
"NC(N)=O [Urea, urea]",pKa conjugated base,[5]; cocrystal forming compound,Not basic

# Reference: patent US12384754B2, “Cocrystals of (1R,3S)-3-(5-cyano-4-phenyl-1,3-thiazol-2-ylcarbamoyl)cyclopentane carboxylic acid” (PALOBIOFARMA, S.L., priority 2020, dated 2025)
